Laboratory results published in US20090186853A1, “COMPOSITIONS COMPRISING N-PROPANOYL DERIVATIVES OF AMINO ACIDS, AMINOCARBOHYDRATES AND DERIVATIVES THEREOF” (priority 2005, published 2009).

Columns and labels:
[1] = test system: itchy lesion due to atopic eczema; experiment: Topical treatment of itch from atopic eczema in a human subject; assay type: in vivo; conditions: 5% cream
Method: For subjective disorders such as pain, itch, or the like, the therapeutic effects were evaluated or judged by the subjects or patients. For example, the subjects evaluated whether the pain or itch had disappeared within hours or days. For other detectable symptoms or syndromes, the therapeutic effects or improvements were evaluated or judged by medical professionals. N-Propanoyl-D-glucosamine 5 g was dissolved in water 15 ml and propylene glycol 5 ml, and the solution thus obtained was mixed uniformly with hydrophilic ointment or oil-in-water emulsion 75 g. The cream thus formulated had pH 4.7 and contained 5% N-propanoyl-D-glucosamine. A subject, having an itchy lesion on their right foot due to atopic eczema, topically applied the above cream to the lesion. […] A human subject having itchy skin from atopic eczema topically applied 5% N-propanoyl-glucosamine cream to the lesion.

[2] = test system: fine wrinkles (crow's feet); experiment: Topical treatment of fine wrinkles (crow's feet) near the eyes; assay type: in vivo, human; conditions: 5% cream of Example 7, topical twice daily, five weeks, person
Method: For subjective disorders such as pain, itch, or the like, the therapeutic effects were evaluated or judged by the subjects or patients. For example, the subjects evaluated whether the pain or itch had disappeared within hours or days. For other detectable symptoms or syndromes, the therapeutic effects or improvements were evaluated or judged by medical professionals. A subject, applied topically twice daily 5% N-propanoyl-D-glucosamine cream as formulated in Example 7 to fine wrinkles (crow's feet) near the eyes for five weeks.

[3] = test system: forearm skin (aging / photoaging skin); experiment: Forearm skin thickness measured by micrometer calipers after topical application; assay type: in vivo, human; conditions: 10% solution twice daily; for appearance of treated forearm skin compared with untreated forearm: at end of treatment (6 to 9 weeks)
Method: Skin thickness was measured by micrometer calipers to study skin changes associated with aging as follows: The skin was grasped with a 2×6 cm metal hinge, the internal faces of that were coated with emery cloth to prevent slippage, and manually squeezed to threshold subject discomfort. Combined thickness of two whole-skin layers including thickness of the two hinge leaves was measured with micrometer calipers. Thickness of the two hinge leaves was subtracted to determine the actual thickness of two whole-skin layers. Triplicate measurements on treated sites were done and an average number was used for calculation of the skin thickness. N-Propanoyl-D-glucosamine 10 g was dissolved in 90 ml solution prepared from water 40 parts, ethanol 40 parts and propylene glycol 20 parts by volume. The formulation thus prepared had pH 6.0 and contained 10% N-propanoyl-D-glucosamine solution.

Compound: CCC(=O)N[C@H]1C(O)O[C@H](CO)[C@@H](O)[C@@H]1O (stereo partly drawn) [N-propanoyl-D-glucosamine, N-Propanoyl-D-glucosamine]
- time skin remained free of itch ([1]; single topical application to atopic eczema lesion): 12 h
- itch after topical application ([1]; topical to atopic eczema lesion, a few minutes after application): the itch disappeared completely
- change of wrinkles [2]: wrinkles improved significantly
- appearance of treated forearm skin compared with untreated forearm [3]: firmer, smooth, plump and minimally wrinkled when lifted
- appearance of treated forearm skin compared with untreated forearm ([3]; listed as N-propanoyl-glucosamine): firmer, smooth, plump, minimally wrinkled when lifted
- increase in skin thickness ([3]; left forearm, person, after 4 weeks): 8%
- increase in skin thickness ([3]; left forearm, person, after 5 weeks): 19%
- increase in skin thickness ([3]; left forearm, person, after 6 weeks): 23%
- increase in skin thickness ([3]; left forearm, person, after 8 weeks): 33%
- increase in skin thickness ([3]; left forearm, person, after 9 weeks): 28%
- increase in skin thickness ([3]; left forearm, subject with photoaging skin, 8 weeks): 33%
- increase in skin thickness ([3]; right forearm, person, after 4 weeks): 13%
- increase in skin thickness ([3]; right forearm, person, after 6 weeks): 27%
